Data reported in patent publication US8343956B2, “Process for making a crystalline zilpaterol salt” (Intervet International B.V., priority 2008, dated 2013).
Values joined by “and” are separate entries in the source; they are usually repeats but may differ in a detail not shown here. Equal entries are not always repeated.

Assay: Particle Size Distribution of zilpaterol hydrochloride batches
Format: physicochemical
Settings: batches from crystallization process of Examples 4
Source text: As used herein, particle size refers to a number particle size as measured by conventional particle size measuring techniques well known to those skilled in the art, such as laser scattering, sedimentation field flow fractionation, photon correlation spectroscopy, or disk centrifugation.
The particle size measurement indicated as Particle Size Distribution (relative amounts of particles present, sorted according to size) can be e.g. performed with a Malvern Mastersizer 2000 with the Hydro 2000G measuring cell, or with a Horiba LA-910 laser scattering particle size distribution analyzer.

SMILES: CC(C)N[C@@H]1CCn2c(=O)[nH]c3cccc(c32)[C@H]1O (racemic) [Example 3, trans-(±)-4,5,6,7-tetrahydro-7-hydroxy-6-[(1-methylethyl)amino]-imidazo[4,5,1-jk][1]benzazepin-2(1H)-one]
- Particle size Distribution <=15 μm (relative amount of crystal particles with size <=15 μm): 2.9% and 1.6% and 3.0%
- Particle size Distribution >=200 μm (relative amount of crystal particles with size >=200 μm): 7.8% and 14.3% and 11.0%
- Particle size Distribution >=250 μm (relative amount of crystal particles with size >=250 μm): 0.3% and 1.7% and 0.8%
- Particle size Distribution >=300 μm (relative amount of crystal particles with size >=300 μm): 0% and 0.2%
